{
  "source": "paper PMC6952396",
  "about": "“Structural basis for itraconazole-mediated NPC1 inhibition” (Nature Communications, 2020)",
  "key": {"[1]": {"system": "NPC1-mediated cholesterol export", "settings": "cited from earlier work"}, "[2]": {"molecular_target": "T1, NPC1 (Cricetulus griseus, UniProt Q9JLG3)", "T1 construct": "CHO-7 cells in the medium are deprived of cholesterol to induce the LDL receptors biosynthesis; endogenous in cells; host or cells: CHO-7 cells", "T1 sequence (Q9JLG3 23-1277)": "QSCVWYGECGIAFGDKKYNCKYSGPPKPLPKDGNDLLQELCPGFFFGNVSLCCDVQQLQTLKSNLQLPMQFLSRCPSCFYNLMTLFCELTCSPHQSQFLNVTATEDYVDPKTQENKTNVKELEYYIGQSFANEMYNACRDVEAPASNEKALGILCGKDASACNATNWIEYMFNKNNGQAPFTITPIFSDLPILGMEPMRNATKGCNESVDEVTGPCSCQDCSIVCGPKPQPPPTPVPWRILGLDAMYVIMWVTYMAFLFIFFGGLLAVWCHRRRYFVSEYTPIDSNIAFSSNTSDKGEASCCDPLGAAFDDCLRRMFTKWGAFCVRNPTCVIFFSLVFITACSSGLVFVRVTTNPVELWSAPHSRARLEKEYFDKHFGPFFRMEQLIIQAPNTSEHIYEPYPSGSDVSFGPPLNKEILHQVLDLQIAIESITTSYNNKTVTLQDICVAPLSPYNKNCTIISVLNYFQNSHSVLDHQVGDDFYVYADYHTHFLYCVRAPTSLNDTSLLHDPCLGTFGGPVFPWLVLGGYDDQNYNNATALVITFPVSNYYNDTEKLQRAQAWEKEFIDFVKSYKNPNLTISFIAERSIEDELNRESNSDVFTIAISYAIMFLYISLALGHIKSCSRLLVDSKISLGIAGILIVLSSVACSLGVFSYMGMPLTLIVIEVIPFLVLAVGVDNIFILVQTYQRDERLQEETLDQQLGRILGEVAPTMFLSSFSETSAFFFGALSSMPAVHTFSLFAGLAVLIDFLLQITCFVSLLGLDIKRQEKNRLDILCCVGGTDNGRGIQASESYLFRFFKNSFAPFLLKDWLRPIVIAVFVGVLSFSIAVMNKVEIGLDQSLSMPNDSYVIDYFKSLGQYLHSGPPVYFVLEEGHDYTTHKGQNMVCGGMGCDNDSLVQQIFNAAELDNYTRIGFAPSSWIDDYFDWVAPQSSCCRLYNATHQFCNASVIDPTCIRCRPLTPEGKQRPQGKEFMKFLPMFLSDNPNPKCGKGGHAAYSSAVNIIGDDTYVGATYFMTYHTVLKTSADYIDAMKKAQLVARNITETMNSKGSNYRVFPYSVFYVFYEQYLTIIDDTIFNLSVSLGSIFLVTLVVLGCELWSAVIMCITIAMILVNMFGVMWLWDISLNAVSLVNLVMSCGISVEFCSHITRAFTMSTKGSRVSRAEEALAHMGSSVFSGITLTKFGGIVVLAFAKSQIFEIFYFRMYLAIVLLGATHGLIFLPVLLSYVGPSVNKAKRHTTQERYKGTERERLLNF", "settings": "cultured cells; cited from earlier work"}, "[3]": {"molecular_target": "T1, NPC1", "assay": "Cholesterol re-esterification (ACAT) assay measuring NPC1-mediated export of cholesterol from lysosomes in CHO-7 cells", "assay_type": "cell-based", "settings": "for cholesteryl [14C] oleate formed, Repeat 1 / cholesteryl [14C] oleate formed, Repeat 2: Fig. 2 source data; for cholesteryl [14C] oleate formed, Repeat 3 / cholesteryl [14C] oleate formed, Repeat 4: Supplementary Fig. 3 source data", "excerpt": "Itraconazole has three chiral centers (Supplementary Fig. 2a). The pharmaceutical form contains four cis-stereoisomers in a 1:1:1:1 molar ratio (Supplementary Fig. 2a–d). To determine the activity of the cis-stereoisomers, the individual isomers were isolated and identified based on their optical rotation in chloroform following a previous report (Supplementary Fig. 2e)[26]. Then, they were separately tested in a cholesterol re-esterification assay used to measure NPC1-mediated export of cholesterol from lysosomes. Briefly, CHO-7 cells in the medium are deprived of cholesterol to induce the LDL receptors biosynthesis. The cells are then incubated with fetal calf serum (FCS) that contains LDL. The LDL-derived cholesterol will now be transported by functional NPC1 protein from the lysosome to the endoplasmic reticulum (ER). The acyl-CoA:cholesterol actyltransferase named ACAT can now re-esterify the cholesterol in the ER. Therefore, the cells were pulse-labeled with [^14C] oleate and we can measure the synthesis of cholesteroyl [^14C] oleate to evaluate the activity of NPC1 protein. Using this assay, we tested the ability of various itraconazole to inhibit NPC1 activity.\nFig. 2 ACAT activity of itraconazole and ketoconazole in CHO-7 cells. On day 0, CHO-7 cells were set up in medium A with 5% LPDS at 2.5 × 10^5 cells/well in 6-well dish. On day 2, cells were switched to medium A with 5% LPDS containing 50 µM sodium compactin and 50 µM sodium mevalonate. On day 3 the cells received fresh medium B containing compactin and mevalonate with various concentration compounds in the presence of 10% FCS containing lipoproteins. After incubation for 4 h at 37 °C, each cell monolayer was pulse-labeled for 2 h with 0.1 mM sodium [^14C] oleate (5792 dpm/nmol). The cells were then harvested for measurement of their content of cholesteryl [^14C] oleate and [^14C] triglycerides, as described in Methods. […] Itraconazole mixture, isomer A (Supplementary Fig. 2a), isomer B (Supplementary Fig. 2b) and isomer C (Supplementary Fig. 2c) were added at final concentrations of 0.3 μM. The isomer D (Supplementary Fig. 2d), I-Br and ketoconazole were added at final concentrations of 1 μM. The biological repeats are shown as individual values. Source data are provided as a Source Data file.\nOn day 0, cells were set up in medium A with 5% LPDS at 2.5 × 10^5 cells/well in six-well dish. On day 2, cells were switched to medium A with 5% LPDS containing 50 µM sodium compactin and 50 µM sodium mevalonate. On day 3 the cells received fresh medium B containing compactin and mevalonate with indicated concentration triazole compounds in the presence of 10% FCS containing lipoproteins. After incubation for 4 h at 37 °C, each cell monolayer was pulse-labeled for 2 h with 0.1 mM sodium [^14C] oleate (5792 dpm/nmol). The cells were then harvested for measurement of their content of cholesteryl [^14C] oleate and [^14C] triglycerides.\nThe rate of incorporation of [^14C] oleate into cholesteryl [^14C] oleate and [^14C] triglycerides by monolayers of NPC1^−/− cells and CHO-7 cells was measured as described previously. In brief, cells were switched to medium containing LPDS supplemented with compactin and mevolonate at 16 h before the experiments. On the day of the experiment, cells were incubated for 4 h with fresh medium containing FCS as a source of cholesterol-containing lipoproteins. Cells were then pulse –labeled for 2 h with 0.1 mM sodium [^14C] oleate. Cells were then washed, and the lipids were extracted in hexane:isopropanol (3:2, vol:vol), separated on a silica gel G thin-layer chromatogram (developed in heptane:ethylether:acetic acid, 90:30:1), and quantified by scintillation counting with the use of an internal standard for recovery."}},
  "data": [
    {"smiles": "CCN(CC)CCO[C@H]1CC[C@@]2(C)C(=CC[C@@H]3[C@@H]2CC[C@]2(C)C(=O)CC[C@@H]32)C1", "note": "[U18666A]", "values": [
      {"measurement": "inhibition of cholesterol export from lysosomes", "setting": "[1]", "result": "inhibit cholesterol export from lysosomes"},
      {"measurement": "inhibition of P-X cross-linking to NPC1", "setting": "[2]", "result": "inhibited"}
    ]},
    {"smiles": "CCC(C)n1ncn(-c2ccc(N3CCN(c4ccc(OCC5COC(Cn6cncn6)(c6ccc(Cl)cc6Cl)O5)cc4)CC3)cc2)c1=O", "note": "(centres unmarked) [Itra-A]", "values": [
      {"measurement": "cholesteryl [14C] oleate formed, Repeat 1", "setting": "[3]; 0.01 uM compound", "result": "3.345 nanomoles formed per hour per milligram cell protein"},
      {"measurement": "cholesteryl [14C] oleate formed, Repeat 2", "setting": "[3]; 0.01 uM compound", "result": "3.639 nanomoles formed per hour per milligram cell protein"},
      {"measurement": "cholesteryl [14C] oleate formed, Repeat 3", "setting": "[3]; 0.01 uM compound", "result": "4.944 nanomoles formed per hour per milligram cell protein"},
      {"measurement": "cholesteryl [14C] oleate formed, Repeat 4", "setting": "[3]; 0.01 uM compound", "result": "4.771 nanomoles formed per hour per milligram cell protein"},
      {"measurement": "cholesteryl [14C] oleate formed, Repeat 1", "setting": "[3]; 0.03 uM compound", "result": "2.117 nanomoles formed per hour per milligram cell protein"},
      {"measurement": "cholesteryl [14C] oleate formed, Repeat 2", "setting": "[3]; 0.03 uM compound", "result": "3.138 nanomoles formed per hour per milligram cell protein"},
      {"measurement": "cholesteryl [14C] oleate formed, Repeat 3", "setting": "[3]; 0.03 uM compound", "result": "2.06 nanomoles formed per hour per milligram cell protein"},
      {"measurement": "cholesteryl [14C] oleate formed, Repeat 4", "setting": "[3]; 0.03 uM compound", "result": "3.899 nanomoles formed per hour per milligram cell protein"},
      {"measurement": "cholesteryl [14C] oleate formed, Repeat 1", "setting": "[3]; 0.06 uM compound", "result": "1.347 nanomoles formed per hour per milligram cell protein"},
      {"measurement": "cholesteryl [14C] oleate formed, Repeat 2", "setting": "[3]; 0.06 uM compound", "result": "1.367 nanomoles formed per hour per milligram cell protein"},
      {"measurement": "cholesteryl [14C] oleate formed, Repeat 3", "setting": "[3]; 0.06 uM compound", "result": "2.476 nanomoles formed per hour per milligram cell protein"},
      {"measurement": "cholesteryl [14C] oleate formed, Repeat 4", "setting": "[3]; 0.06 uM compound", "result": "3.208 nanomoles formed per hour per milligram cell protein"},
      {"measurement": "cholesteryl [14C] oleate formed, Repeat 1", "setting": "[3]; 0.1 uM compound", "result": "0.6494 nanomoles formed per hour per milligram cell protein"},
      {"measurement": "cholesteryl [14C] oleate formed, Repeat 2", "setting": "[3]; 0.1 uM compound", "result": "0.4243 nanomoles formed per hour per milligram cell protein"},
      {"measurement": "cholesteryl [14C] oleate formed, Repeat 3", "setting": "[3]; 0.1 uM compound", "result": "0.5346 nanomoles formed per hour per milligram cell protein"},
      {"measurement": "cholesteryl [14C] oleate formed, Repeat 4", "setting": "[3]; 0.1 uM compound", "result": "0.7537 nanomoles formed per hour per milligram cell protein"},
      {"measurement": "cholesteryl [14C] oleate formed, Repeat 1", "setting": "[3]; 0.3 uM compound", "result": "0.1828 nanomoles formed per hour per milligram cell protein"},
      {"measurement": "cholesteryl [14C] oleate formed, Repeat 2", "setting": "[3]; 0.3 uM compound", "result": "0.9513 nanomoles formed per hour per milligram cell protein"},
      {"measurement": "cholesteryl [14C] oleate formed, Repeat 3", "setting": "[3]; 0.3 uM compound", "result": "0.009558 nanomoles formed per hour per milligram cell protein"},
      {"measurement": "cholesteryl [14C] oleate formed, Repeat 4", "setting": "[3]; 0.3 uM compound", "result": "0.01486 nanomoles formed per hour per milligram cell protein"},
      {"measurement": "IC50", "setting": "[3]; read-out: IC50 (concentration at which each compound inhibited cholesterol esterification by 50%), 10% FCS, 4 h then 2 h [14C] oleate pulse", "result": 20, "unit": "nM"}
    ]}
  ]
}
